This test has as its target T1, TLR9 (Homo sapiens, UniProt Q9NR96).
T1 sequence (Q9NR96 26-1032): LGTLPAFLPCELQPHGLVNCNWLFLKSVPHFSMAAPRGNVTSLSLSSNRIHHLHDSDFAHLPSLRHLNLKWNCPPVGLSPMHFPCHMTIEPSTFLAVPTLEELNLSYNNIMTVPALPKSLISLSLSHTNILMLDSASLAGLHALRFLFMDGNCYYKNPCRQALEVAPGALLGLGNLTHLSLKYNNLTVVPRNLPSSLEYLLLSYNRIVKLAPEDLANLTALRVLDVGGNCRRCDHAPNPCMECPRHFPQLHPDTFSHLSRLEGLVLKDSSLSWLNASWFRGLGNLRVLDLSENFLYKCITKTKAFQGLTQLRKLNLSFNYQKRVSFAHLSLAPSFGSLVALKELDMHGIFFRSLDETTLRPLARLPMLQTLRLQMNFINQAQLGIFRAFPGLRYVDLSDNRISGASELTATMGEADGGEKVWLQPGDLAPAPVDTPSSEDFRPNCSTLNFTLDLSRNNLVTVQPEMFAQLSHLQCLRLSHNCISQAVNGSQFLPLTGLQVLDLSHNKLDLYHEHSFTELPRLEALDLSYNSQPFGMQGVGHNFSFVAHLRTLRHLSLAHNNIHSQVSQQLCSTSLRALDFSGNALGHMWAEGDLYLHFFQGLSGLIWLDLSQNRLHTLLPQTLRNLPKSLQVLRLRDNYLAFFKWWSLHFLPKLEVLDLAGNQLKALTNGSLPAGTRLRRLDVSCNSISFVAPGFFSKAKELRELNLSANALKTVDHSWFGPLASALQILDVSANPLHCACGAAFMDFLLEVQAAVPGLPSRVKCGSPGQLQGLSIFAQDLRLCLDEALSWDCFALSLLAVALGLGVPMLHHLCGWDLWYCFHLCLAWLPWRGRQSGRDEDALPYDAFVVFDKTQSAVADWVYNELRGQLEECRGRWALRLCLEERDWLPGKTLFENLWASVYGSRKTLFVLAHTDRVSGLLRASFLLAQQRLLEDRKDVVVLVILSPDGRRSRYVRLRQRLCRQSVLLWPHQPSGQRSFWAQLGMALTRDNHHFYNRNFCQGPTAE
Kind of test: HEK-293 human TLR9 NF-kappaB luciferase reporter assay (CpG-ODN). Format: cell-based. Also on record: stably and individually express human TLR4, TLR7 or TLR9 full-length ORF cDNAs; expressed in transfected cells; host or cells: HEK-293 (ATCC) with ELAM-1 NF-kappaB luciferase reporter. Conditions: ligand CpG-ODN, analyte NFkB-luciferase. As to the method: To identify potent and selective TLR7/8 compounds, analogs were initially screened across a cell-based panel of human TLR4, TLR7, and TLR9 reporter lines (see Pharmacology Materials and Methods for more details). […] Certain compounds were advanced into the short-term in vivo (STIV) assay to determine dose-dependent activity and duration-of-action against mouse TLR7 (see Pharmacology Materials and Methods for more details). Select compounds were then evaluated for impact in one or more of the following mouse lupus disease models: BXSB-Yaa, NZBx-NZW, and Pristane DBA/1.
HEK-293 cells (ATCC) were engineered to stably express a NF-kappaB transcription factor inducible E-selectin (ELAM-1) luciferase reporter derived from the plasmid pGL3 (Promega) containing base pairs −2241 bp to −254 bp from the promoter of the human E-selectin gene (Accession No. NM_000450). These cells were then subsequently engineered to stably and individually express human TLR4, TLR7 or TLR9 full-length ORF cDNAs. Human TLR4 cDNA (Accession No. NM_138554) was cloned into pcDNA 3.0 expression vector (Invitrogen). TLR4 transfected cells were also engineered to express human MD-2 co-receptor [MD-2 cDNA (Accession No. NM_015364) was cloned into the pEF-BOS vector] and were supplemented with 10 nM soluble CD14 (R&D Systems) in the media to optimize LPS responsiveness. […]

These results are taken from patent publication USRE47193E1, “Selectively substituted quinoline compounds” (EISAI R&D MANAGEMENT CO., LTD., priority 2013, dated 2019).

pIC50: −log10 of the molar value.

`C[C@@H]1CN(c2ccc(C#N)c3ncccc23)C[C@H](C(=O)N[C@H]2CNC[C@H]2F)O1.Cl` [ER-899742, (2R,6R)-4-(8-cyanoquinolin-5-yl)-N-[(3S,4R)-4-fluoropyrrolidin-3-yl]-6-methylmorpholine-2-carboxamide hydrochloride] showed a negative logarithm of the IC50 (pIC50) of less than 5.00.
